{"source": "BindingDB's records for doi:10.1073/pnas.0609757104", "about": "(University of Central Florida College of Medicine, 2007)", "target": "T1, Signal transducer and activator of transcription 1-alpha/beta (Homo sapiens, UniProt P42224)", "T1 sequence (P42224 whole entry)": "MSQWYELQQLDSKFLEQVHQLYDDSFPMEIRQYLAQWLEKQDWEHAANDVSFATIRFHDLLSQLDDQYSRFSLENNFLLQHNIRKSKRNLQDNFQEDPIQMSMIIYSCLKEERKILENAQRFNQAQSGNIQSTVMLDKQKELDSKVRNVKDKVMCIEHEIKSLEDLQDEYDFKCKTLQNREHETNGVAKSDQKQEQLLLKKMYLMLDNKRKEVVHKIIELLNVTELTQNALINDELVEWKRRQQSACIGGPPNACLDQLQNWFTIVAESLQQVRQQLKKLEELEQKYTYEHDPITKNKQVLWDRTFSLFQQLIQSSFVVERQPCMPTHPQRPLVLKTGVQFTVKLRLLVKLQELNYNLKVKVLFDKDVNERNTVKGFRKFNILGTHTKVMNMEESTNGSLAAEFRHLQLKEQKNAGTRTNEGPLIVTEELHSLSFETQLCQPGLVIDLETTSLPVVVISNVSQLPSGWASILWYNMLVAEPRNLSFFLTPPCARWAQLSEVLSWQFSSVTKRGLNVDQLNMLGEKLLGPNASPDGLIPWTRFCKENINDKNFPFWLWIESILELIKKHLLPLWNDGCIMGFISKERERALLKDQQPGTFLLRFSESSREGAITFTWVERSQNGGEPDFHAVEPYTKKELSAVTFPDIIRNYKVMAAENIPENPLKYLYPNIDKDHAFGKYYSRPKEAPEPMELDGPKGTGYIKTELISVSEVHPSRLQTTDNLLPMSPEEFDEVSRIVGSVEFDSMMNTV", "test": "Electrophoretic Mobility Shift Assay (EMSA)", "details": "pH 7.8; 22 °C", "protocol": "STAT proteins were expressed in Sf9 cells from a baculovirus encoding the recombinant protein. A nuclear extract of the Sf9 cells was incubated with 32P-labeled high affinity c-fos sis inducible element (hSIE) either alone or in the presence of inhibitor. After incubation, samples were electrophoresed on polyacrylamide gels. The gels were dried, exposed to a phosphorimager screen and scanned. IC50 values were derived from plots of spot intensity versus phosphopeptide concentration. The affinity of peptides to the SH2 domain is measured by the intensity of the radioactivity of the Stat-DNA complex band in the electrophoresis gel.", "data": [{"molecule": "Cc1ccc(S(=O)(=O)OCC(=O)Nc2ccc(C(=O)O)c(O)c2)cc1", "note": "[2-hydroxy-4-(2-{[(4-methylbenzene)sulfonyl]oxy}acetamido)benzoic acid]", "values": [{"measurement": "IC50", "value": "> 300", "unit": "µM"}]}]}
